Results taken from patent US11912703B2, “6-azaindole compounds” (BRISTOL-MYERS SQUIBB COMPANY, priority 2017, dated 2024).
Read-outs that look alike come from different tables or passages of the source.

Legend:
human TLR8 = human TLR8 (Homo sapiens (Human), UniProt Q9NR97); assay: TLR8 inhibition reporter assay (HEK-Blue SEAP);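 also: SEAP driven by IFN-β minimal promoter with five NF-κB and AP-1 sites, compounds tested 0.05 nM to 50 µM, 22 h incubation, inhibition relative to agonist plus DMSO wells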
human TLR7 = human TLR7 (Homo sapiens (Human), UniProt Q9NYK1); assay: TLR7 inhibition reporter assay (HEK-Blue SEAP); assay type: cell-based; conditions: HEK-Blue cells overexpressing human TLR7, gardiquimod 7.5 μM stimulation
Experimental: HEK-Blue™-cells (Invivogen) overexpressing human TLR7, TLR8 or TLR9 receptors were used for screening inhibitors of these receptors using an inducible SEAP (secreted embryonic alkaline phosphatase) reporter gene under the control of the IFN-β minimal promoter fused to five NF-κB and AP-1-binding sites. Briefly, cells are seeded into Greiner 384 well plates (15000 cells per well for TLR7, 20,000 for TLR8 and 25,000 for TLR9) and then treated with test compounds in DMSO to yield a final dose response concentration range of 0.05 nM-50 μM. After a 30 minute compound pre-treatment at room temperature, the cells are then stimulated with a TLR7 ligand (gardiquimod at a final concentration of 7.5 μM), TLR8 ligand (R848 at a final concentration of 15.9 μM) or TLR9 ligand (ODN2006 at a final concentration of 5 nM) to activate NF-κB and AP-1 which induce the production of SEAP. After a 22 hour incubation at 37° C., 500 CO2, SEAP levels are determined with the addition of HEK-Blue™ Detection reagent (Invivogen), a cell culture medium that allows for detection of SEAP, according to manufacturer's specifications.

human TLR9 = human TLR9 (Homo sapiens (Human), UniProt Q9NR96); assay: TLR9 inhibition reporter assay (HEK-Blue SEAP);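 also: SEAP driven by IFN-β minimal promoter carrying five NF-κB and AP-1 sites, 22 h at 37 °C, compounds 0.05 nM–50 µM, inhibition scaled between agonist-plus-DMSO and reference-inhibitor wells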
[1] = read-out: TLR8 IC50; HEK-Blue cells overexpressing human TLR8, R848 15.9 μM stimulation, SEAP reporter
[2] = read-out: TLR9 IC50; HEK-Blue cells overexpressing human TLR9, ODN2006 5 nM stimulation, SEAP reporter
[3] = read-out: TLR8 IC50; HEK-Blue cells overexpressing human TLR8; R848 15.9 μM stimulation; SEAP reporter
[4] = read-out: TLR9 IC50; HEK-Blue cells overexpressing human TLR9; ODN2006 5 nM stimulation; SEAP reporter

human TLR9, sequence (Q9NR96 26-1032): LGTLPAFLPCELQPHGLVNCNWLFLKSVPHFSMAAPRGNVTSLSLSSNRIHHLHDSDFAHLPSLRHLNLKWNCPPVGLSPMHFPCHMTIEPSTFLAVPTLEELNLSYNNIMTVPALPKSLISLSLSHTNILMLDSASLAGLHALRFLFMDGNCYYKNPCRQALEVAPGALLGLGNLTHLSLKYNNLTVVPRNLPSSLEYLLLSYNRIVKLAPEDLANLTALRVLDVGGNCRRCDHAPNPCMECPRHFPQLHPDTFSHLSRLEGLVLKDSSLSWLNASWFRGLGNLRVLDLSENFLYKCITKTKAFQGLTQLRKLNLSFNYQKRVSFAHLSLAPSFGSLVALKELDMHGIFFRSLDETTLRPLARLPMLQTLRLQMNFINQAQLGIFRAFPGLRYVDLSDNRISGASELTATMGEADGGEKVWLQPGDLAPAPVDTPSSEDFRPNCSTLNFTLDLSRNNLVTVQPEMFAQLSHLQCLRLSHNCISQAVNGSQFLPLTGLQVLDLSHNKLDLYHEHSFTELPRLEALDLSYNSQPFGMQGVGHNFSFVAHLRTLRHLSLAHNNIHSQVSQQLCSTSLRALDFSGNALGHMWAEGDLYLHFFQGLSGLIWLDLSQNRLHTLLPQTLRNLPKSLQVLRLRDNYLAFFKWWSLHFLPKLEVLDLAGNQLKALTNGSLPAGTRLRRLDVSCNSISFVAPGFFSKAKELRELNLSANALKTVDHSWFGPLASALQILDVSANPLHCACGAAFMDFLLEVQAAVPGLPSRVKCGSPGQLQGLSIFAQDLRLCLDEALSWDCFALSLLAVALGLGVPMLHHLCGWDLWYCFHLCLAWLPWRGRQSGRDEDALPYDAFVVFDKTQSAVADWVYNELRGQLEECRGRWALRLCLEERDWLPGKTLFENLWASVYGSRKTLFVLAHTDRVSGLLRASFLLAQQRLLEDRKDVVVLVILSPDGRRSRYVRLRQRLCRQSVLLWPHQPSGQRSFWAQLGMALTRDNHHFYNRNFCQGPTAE
human TLR7, sequence (Q9NYK1 27-1049): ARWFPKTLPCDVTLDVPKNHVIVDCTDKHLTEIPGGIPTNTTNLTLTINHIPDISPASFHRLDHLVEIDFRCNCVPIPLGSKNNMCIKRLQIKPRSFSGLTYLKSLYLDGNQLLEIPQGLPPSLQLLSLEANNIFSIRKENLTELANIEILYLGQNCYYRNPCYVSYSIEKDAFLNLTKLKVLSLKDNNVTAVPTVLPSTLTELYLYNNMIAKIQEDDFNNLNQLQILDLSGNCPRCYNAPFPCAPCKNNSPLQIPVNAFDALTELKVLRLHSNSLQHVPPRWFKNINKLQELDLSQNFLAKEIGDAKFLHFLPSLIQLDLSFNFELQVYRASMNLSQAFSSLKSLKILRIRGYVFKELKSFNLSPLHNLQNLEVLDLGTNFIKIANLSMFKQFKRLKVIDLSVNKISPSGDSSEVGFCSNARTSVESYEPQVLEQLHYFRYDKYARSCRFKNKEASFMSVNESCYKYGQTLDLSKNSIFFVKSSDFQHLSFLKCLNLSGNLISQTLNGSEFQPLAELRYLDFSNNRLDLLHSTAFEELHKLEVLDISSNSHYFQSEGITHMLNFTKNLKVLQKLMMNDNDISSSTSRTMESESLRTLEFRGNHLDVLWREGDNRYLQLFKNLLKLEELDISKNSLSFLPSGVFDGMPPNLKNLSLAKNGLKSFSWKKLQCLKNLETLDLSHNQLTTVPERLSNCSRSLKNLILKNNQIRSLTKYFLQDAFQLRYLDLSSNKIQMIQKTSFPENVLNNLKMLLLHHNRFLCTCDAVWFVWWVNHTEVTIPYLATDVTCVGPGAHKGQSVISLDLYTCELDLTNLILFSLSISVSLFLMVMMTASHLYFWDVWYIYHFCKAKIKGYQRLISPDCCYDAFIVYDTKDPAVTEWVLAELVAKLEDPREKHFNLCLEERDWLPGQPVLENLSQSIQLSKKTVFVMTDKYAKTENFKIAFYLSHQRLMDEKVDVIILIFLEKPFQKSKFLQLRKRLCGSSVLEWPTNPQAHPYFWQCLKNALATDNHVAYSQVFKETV
human TLR8, sequence (Q9NR97 27-1041): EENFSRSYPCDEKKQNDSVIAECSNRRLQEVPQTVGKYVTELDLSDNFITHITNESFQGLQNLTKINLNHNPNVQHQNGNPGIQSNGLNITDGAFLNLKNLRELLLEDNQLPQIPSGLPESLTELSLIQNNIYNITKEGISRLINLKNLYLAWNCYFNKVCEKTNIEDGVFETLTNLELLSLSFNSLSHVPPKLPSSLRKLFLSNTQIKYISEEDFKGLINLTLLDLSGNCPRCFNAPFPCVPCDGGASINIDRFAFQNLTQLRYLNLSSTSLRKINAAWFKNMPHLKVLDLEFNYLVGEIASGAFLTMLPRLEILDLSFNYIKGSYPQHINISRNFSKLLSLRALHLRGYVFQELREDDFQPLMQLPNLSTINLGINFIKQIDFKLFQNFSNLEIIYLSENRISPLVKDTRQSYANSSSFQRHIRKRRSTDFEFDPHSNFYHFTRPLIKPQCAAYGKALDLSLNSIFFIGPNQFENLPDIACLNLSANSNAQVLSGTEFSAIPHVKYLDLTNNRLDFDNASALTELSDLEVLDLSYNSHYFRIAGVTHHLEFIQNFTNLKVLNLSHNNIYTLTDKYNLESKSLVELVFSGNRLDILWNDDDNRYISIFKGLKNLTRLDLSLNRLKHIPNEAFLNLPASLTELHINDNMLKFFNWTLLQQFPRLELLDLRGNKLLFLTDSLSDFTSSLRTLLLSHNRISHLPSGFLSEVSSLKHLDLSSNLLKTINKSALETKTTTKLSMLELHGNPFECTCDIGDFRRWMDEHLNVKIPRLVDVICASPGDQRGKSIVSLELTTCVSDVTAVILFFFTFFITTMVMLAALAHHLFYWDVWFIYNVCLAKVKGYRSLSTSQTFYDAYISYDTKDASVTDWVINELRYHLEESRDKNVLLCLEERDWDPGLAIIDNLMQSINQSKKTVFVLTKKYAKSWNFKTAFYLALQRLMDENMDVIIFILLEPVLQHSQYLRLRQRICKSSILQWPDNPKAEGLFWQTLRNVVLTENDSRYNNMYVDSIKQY

SMILES	IC50 (human TLR8; [1]) [µM]	IC50 (human TLR7) [µM]	IC50 (human TLR9; [2]) [µM]	IC50 (human TLR8; [3]) [µM]	IC50 (human TLR9; [4]) [µM]
Cc1cc(-c2[nH]c3cnc(C4CCN(CC(N)=O)CC4)c(F)c3c2C(C)C)cn2ncnc12 [Example 125]	0.0065	0.0031	7.03		
CCN(C)C1CCC(c2cc3c(C(C)C)c(-c4cc(OC)c5ncnn5c4)[nH]c3cn2)C1 (stereo not drawn) [Example 248]	0.0068	0.0057	0.396		
Cc1c(N2CCC(N(C)CCC#N)CC2)ncc2[nH]c(-c3cc(C)c4ncnn4c3)c(C(C)C)c12 [Example 280]	0.0012	0.0013	2.5		
COc1cc(-c2[nH]c3cnc(C4CCC(NC(C)C)CC4)cc3c2C(C)C)cn2ncnc12 (stereo not drawn) [Example 323]	0.02	0.0045	0.258		
COc1cc(-c2[nH]c3cnc(C4CCC(NCC5(C)COC5)C4)cc3c2C(C)C)cn2ncnc12 (stereo not drawn) [Example 59]	0.0047	0.015	0.197		
Cc1cc(-c2[nH]c3cnc(C4CCN(C(=O)CN(C)C)CC4)c(F)c3c2C(C)C)cn2ncnc12 [Example 66]	0.0049	0.0021	3.62		
Cc1cc(-c2[nH]c3cnc(C4CCN(CC(=O)N(C)C)CC4)cc3c2C(C)C)cn2ncnc12 [Example 299]	0.025	0.0029	0.356		
CCN(C)C1CCC(c2ncc3[nH]c(-c4cn5ncnc5c(C)c4C)c(C(C)C)c3c2F)CC1 (stereo not drawn) [Example 135]	0.00048	0.00024	6.5		
Cc1c(-c2[nH]c3cnc(N4CCN(CC(=O)N5CCOCC5)C[C@H]4C)c(F)c3c2C(C)C)cn2ncnc2c1C [Example 469]		0.013		0.0035	47.9
COc1cc(-c2[nH]c3cnc(C4CCC(NCC(C)(C)OC)C4)cc3c2C(C)C)cn2ncnc12 (stereo not drawn) [Example 123]	0.031	0.026	1.11		
Cc1c(-c2[nH]c3cnc(N4CCC(NCC(C)(C)O)CC4)c(C)c3c2C(C)C)cn2ncnc2c1C [Example 88]	0.00028	0.00062	0.322		
Cc1c(-c2[nH]c3cnc(C4CCC(NC5COC5)CC4)cc3c2C(C)C)cn2ncnc2c1C (stereo not drawn) [Example 334]	0.0014	0.00035	0.452		
Cc1c(-c2[nH]c3cnc(C4CCC(NC(C)C)CC4)c(F)c3c2C(C)C)cn2ncnc2c1C (stereo not drawn) [Example 136]	0.00032	0.00041	0.62		
Cc1c(-c2[nH]c3cnc(C4CCC(NCC5(C)COC5)CC4)c(C)c3c2C(C)C)cn2ncnc2c1C (stereo not drawn) [Example 203]	0.0093	0.027	0.513		
COc1cc(-c2[nH]c3cnc(C4CCC(NCC(C)(C)C)C4)cc3c2C(C)C)cn2ncnc12 (stereo not drawn) [Example 60]	0.0012	0.005	0.502		
Cc1c(-c2[nH]c3cnc(N4CCN(C5CCOCC5)CC4)c(C)c3c2C(C)C)cn2ncnc2c1C [Example 418]	0.0022	0.019	6.01		
CCN(C)C1CCC(c2cc3c(C(C)C)c(-c4cc(OC)c5ncnn5c4)[nH]c3cn2)C1 (stereo not drawn) [Example 272]	0.022	0.007	0.391		
CCCN1CCN(c2ncc3[nH]c(-c4cn5ncnc5c(C)c4C)c(C(C)C)c3c2F)[C@H](C)C1 [Example 455]		0.00059		0.00017	14.6
COc1cc(-c2[nH]c3cnc(N4CCN(CCS(C)(=O)=O)CC4)cc3c2C(C)C)cn2ncnc12 [Example 290]	0.0071	0.02	> 50		
Cc1c(-c2[nH]c3cnc(N4CCN(CC(F)(F)F)C[C@H]4C)c(F)c3c2C(C)C)cn2ncnc2c1C [Example 468]		0.043		0.05	> 50
Cc1c(N2CCC(NC34CC(C3)C4)CC2)ncc2[nH]c(-c3cc(C)c4ncnn4c3)c(C(C)C)c12 [Example 148]	0.0017	0.0011	1.17		

Next, values leading:

IC50 (human TLR8; [1]) [µM]	IC50 (human TLR7) [µM]	IC50 (human TLR9; [2]) [µM]	IC50 (human TLR8; [3]) [µM]	IC50 (human TLR9; [4]) [µM]	SMILES
0.0061	0.015	18.5			CNC(=O)CN1CC2(C1)CN(c1ncc3[nH]c(-c4cc(OC)c5ncnn5c4)c(C(C)C)c3c1F)C2 [Example 356, 2-(6-(4-fluoro-3-isopropyl-2-(8-methoxy-[1,2,4]triazolo[1,5-a]pyridin-6-yl)-1H-pyrrolo[2,3-c]pyridin-5-yl)-2,6-diazaspiro[3.3]heptan-2-yl)-N-methylacetamide]
0.023	0.027	> 50			COc1cc(-c2[nH]c3cnc(N4CC5(C4)CN(C4COC4)C5)c(F)c3c2C(C)C)cn2ncnc12 [Example 369, 6-(4-fluoro-3-isopropyl-5-(6-(oxetan-3-yl)-2,6-diazaspiro[3.3]heptan-2-yl)-1H-pyrrolo[2,3-c]pyridin-2-yl)-8-methoxy-[1,2,4]triazolo[1,5-a]pyridine]
0.0044	0.027	6.44			Cc1c(-c2[nH]c3cnc(N4CC5(C4)CN(C4CCOCC4)C5)c(F)c3c2C(C)C)cn2ncnc2c1C [Example 401]
0.0044	0.0033	0.409			COc1cc(-c2[nH]c3cnc(C4CCN(C(=O)CN(C)C)CC4)c(F)c3c2C(C)C)cn2ncnc12 [Example 37]
	0.0027		0.0024	1.11	COc1cc(-c2[nH]c3cnc(C4CCC(NC5COC5)CC4)c(F)c3c2C(C)C)cn2ncnc12 (stereo not drawn) [Example 223]
0.032	0.011	> 50			COc1cc(-c2[nH]c3cnc(N4CCN(CC(N)=O)C[C@H]4C)c(F)c3c2C(C)C)cn2ncnc12 [Example 447]
0.019	0.0056	0.896			CNCC(=O)N1CCC(c2ncc3[nH]c(-c4cc(OC)c5ncnn5c4)c(C(C)C)c3c2F)CC1 [Example 10]
0.011	0.0099	8.31			CNC(=O)CN1CCN(c2ncc3[nH]c(-c4cc(OC)c5ncnn5c4)c(C(C)C)c3c2C)CC1 [Example 40]
0.00036	0.00063	2.77			Cc1cc(-c2[nH]c3cnc(N4CCC(N5CC6(COC6)C5)CC4)c(F)c3c2C(C)C)cn2ncnc12 [Example 44]
0.00015	0.0023	4.06			COc1cc(-c2[nH]c3cnc(N4CCN(CC5CC5)CC4)c(F)c3c2C(C)C)cn2ncnc12 [Example 390]
0.0038	0.0036	> 50			COc1cc(-c2[nH]c3cnc(N4CCN(CC(N)=O)CC4)c(F)c3c2C(C)C)cn2ncnc12 [Example 358]
	0.0087		0.0042	1.46	COc1cc(-c2[nH]c3cnc(C4CCC(NCC(C)(C)C)CC4)c(F)c3c2C(C)C)cn2ncnc12 (stereo not drawn) [Example 229]
0.0044	0.004	1.23			COc1cc(-c2[nH]c3cnc(N4CCN(C(=O)CN(C)C)CC4)c(C)c3c2C(C)C)cn2ncnc12 [Example 154]
0.0093	0.004	6.55			COc1cc(-c2[nH]c3cnc(N4CCN(C(C)C)C[C@H]4C)c(F)c3c2C(C)C)cn2ncnc12 [Example 443]
0.0015	0.0043	3.71			COc1cc(-c2[nH]c3cnc(N4CCC(N(C)C5COC5)CC4)cc3c2C(C)C)cn2ncnc12 [Example 314]
> 3.12	0.017	7.21			COc1cc(-c2[nH]c3cnc(N4CC5(CN(CC6CCC6)C5)C4)c(F)c3c2C(C)C)cn2ncnc12 [Example 375]
0.003	0.0015	0.517			COc1cc(-c2[nH]c3cnc(N4CCNCC4)c(C)c3c2C(C)C)cn2ncnc12 [Example 213, 6-(3-isopropyl-4-methyl-5-(piperazin-1-yl)-1H-pyrrolo [2,3-c]pyridin-2-yl)-8-methoxy-[1,2,4]triazolo[1,5-a]pyridine]
0.0071	0.0025	7.49			COc1cc(-c2[nH]c3cnc(N4CCN(CC5CC5)C[C@H]4C)c(F)c3c2C(C)C)cn2ncnc12 [Example 442]
0.0015	0.0042	2.79			COc1cc(-c2[nH]c3cnc(N4CCC(NC[C@@H](F)C(C)(C)O)CC4)c(C)c3c2C(C)C)cn2ncnc12 [Example 64]
0.0066	0.0048	17.4			COc1cc(-c2[nH]c3cnc(C4CCC(N(CC#N)C5COC5)CC4)c(F)c3c2C(C)C)cn2ncnc12 (stereo not drawn) [Example 114]
	0.00051		0.00073	1.29	COc1cc(-c2[nH]c3cnc(C4CCC(N5CC6(COC6)C5)CC4)c(F)c3c2C(C)C)cn2ncnc12 (stereo not drawn) [Example 226]
0.013	0.016	> 50			Cc1c(-c2[nH]c3cnc(N4CCN(C5COC5)CC4)c(C)c3c2C(C)C)cn2ncnc2c1C [Example 417, 6-(3-isopropyl-4-methyl-5-(4-(oxetan-3-yl)piperazin-1-yl)-1H-pyrrolo[2,3-c]pyridin-2-yl)-7,8-dimethyl-[1,2,4]triazolo[1,5-a]pyridine]
0.00038	0.0027	8.7			COc1cc(-c2[nH]c3cnc(N4CCN(CC(C)(C)O)CC4)c(F)c3c2C(C)C)cn2ncnc12 [Example 364]
0.0009	0.00063	3.16			COc1cc(-c2[nH]c3cnc(N4CCC(NC5COC5)CC4)c(C)c3c2C(C)C)cn2ncnc12 [Example 137]
0.124	0.04	0.279			COc1cc(-c2[nH]c3cnc(C4CCN(C(=O)CN(C)C)CC4)c(C)c3c2C(C)C)cn2ncnc12 [Example 32]
